Where “and” joins values, the source holds several entries; their conditions need not be identical. Equal values may be shown once. Toxic doses and inconclusive results are not listed.
Tested on: BDF1 mice, P388 leukemia ip, median survival T/C
Experiment: NCI In Vivo Anticancer Drug Screen. Data for tumor model P388 Leukemia (intraperitoneal) in B6D2F1 (BDF1) mice
Conditions: endpoint: median survival time, higher = longer survival
In short: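 Steps: implant the tumour, treat one group with compound and another with vehicle, record survival, then divide treated by control.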

[1] = dose: 66.0 mg/kg/injection, schedule: Q04DX003 (ip), vehicle: saline with Tween-80
[2] = dose: 100.0 mg/kg/injection, schedule: Q04DX003 (ip), vehicle: saline with Tween-80
[3] = dose: 50.0 mg/kg/injection, schedule: Q01DX009 (ip), vehicle: saline with Tween-80
[4] = dose: 100.0 mg/kg/injection, schedule: Q01DX009 (ip), vehicle: saline with Tween-80
[5] = dose: 200.0 mg/kg/injection, schedule: Q01DX009 (ip), vehicle: saline with Tween-80
[6] = dose: 200.0 mg/kg/injection, schedule: Q04DX003 (ip), vehicle: saline with Tween-80
[7] = dose: 400.0 mg/kg/injection, schedule: Q04DX003 (ip), vehicle: saline with Tween-80
[8] = dose: 25.0 mg/kg/injection, schedule: Q01DX009 (ip), vehicle: saline
[9] = dose: 50.0 mg/kg/injection, schedule: Q01DX009 (ip), vehicle: saline
[10] = dose: 100.0 mg/kg/injection, schedule: Q01DX009 (ip), vehicle: saline

c1ccc2c(Nc3ccc(C4=NCCN4)cc3)nnc(Nc3ccc(C4=NCCN4)cc3)c2c1
T/C (dose: 19.0 mg/kg/injection, schedule: Q04DX003 (ip), vehicle: saline with Tween-80): 119 % of control | T/C (dose: 29.0 mg/kg/injection, schedule: Q04DX003 (ip), vehicle: saline with Tween-80): 115 % of control | T/C (dose: 44.0 mg/kg/injection, schedule: Q04DX003 (ip), vehicle: saline with Tween-80): 119 % of control | T/C [1]: 154 % of control and 168 % of control | T/C [2]: 163 % of control | T/C (dose: 150.0 mg/kg/injection, schedule: Q04DX003 (ip), vehicle: saline with Tween-80): 195 % of control

COCCn1c2c(nc(C(=O)OC)/c1=N\C(=O)Nc1ccccc1)CCCC2
T/C [3]: 109 % of control | T/C [4]: 106 % of control | T/C [5]: 106 % of control

O=C(O)C1C2C=CC(C2)C1C(F)(F)C(F)(F)C(F)(F)F (stereo not given)
T/C (dose: 100.0 mg/kg/injection, schedule: Q01DX001 (ip), vehicle: saline with Tween-80): 100 % of control | T/C (dose: 200.0 mg/kg/injection, schedule: Q01DX001 (ip), vehicle: saline with Tween-80): 104 % of control | T/C (dose: 400.0 mg/kg/injection, schedule: Q01DX001 (ip), vehicle: saline with Tween-80): 118 % of control

O=C1NN=C(c2ccc(Br)cc2)CS1
T/C [3]: 100 % of control | T/C [4]: 102 % of control

O=C(Nc1ccccc1C(=O)c1ccccn1)c1ccccc1
T/C (dose: 100.0 mg/kg/injection, schedule: Q04DX003 (ip), vehicle: saline sonified): 90 % of control | T/C (dose: 200.0 mg/kg/injection, schedule: Q04DX003 (ip), vehicle: saline sonified): 90 % of control | T/C (dose: 400.0 mg/kg/injection, schedule: Q04DX003 (ip), vehicle: saline sonified): 90 % of control

CC/C(=N/O)c1ccccc1
T/C [2]: 90 % of control | T/C [6]: 110 % of control | T/C [7]: 105 % of control

Cc1cccc(NC2=C(C#N)C(=O)NC3(CCCC3)S2)c1
T/C [3]: 119 % of control | T/C [4]: 103 % of control | T/C [5]: 100 % of control

CCCSCCCCSCCC
T/C [2]: 109 % of control | T/C [6]: 113 % of control | T/C [7]: 109 % of control

c1ccc(-n2nc3c(c2OCCN2CCCC2)CCCc2ccccc2-3)cc1
T/C [1]: 108 % of control | T/C [2]: 104 % of control and 116 % of control

CO[C@H]1C[C@H](O[C@H]2CC[C@]3(C=O)[C@H]4CC[C@]5(C)[C@@H](C6=CC(=O)OC6)CC[C@]5(O)[C@@H]4CC[C@]3(O)C2)O[C@H](C)[C@H]1O[C@@H]1O[C@H](CO[C@@H]2O[C@H](CO)[C@@H](O)[C@H](O)[C@H]2O)[C@@H](O)[C@H](O)[C@H]1O
T/C (dose: 0.5 mg/kg/injection, schedule: Q01DX010 (ip), vehicle: saline): 115 % of control | T/C (dose: 1.0 mg/kg/injection, schedule: Q01DX010 (ip), vehicle: saline): 110 % of control

C(COCC1CO1)OCC1CO1 (stereo not given)
T/C [8]: 154 % of control and 165 % of control | T/C (dose: 25.0 mg/kg/injection, schedule: Q04DX003 (ip), vehicle: saline): 108 % of control | T/C [9]: 168 % of control and 185 % of control | T/C (dose: 50.0 mg/kg/injection, schedule: Q04DX003 (ip), vehicle: saline with Tween-80): 160 % of control | T/C [10]: 209 % of control | T/C [2]: 165 % of control | T/C (dose: 100.0 mg/kg/injection, schedule: Q04DX003 (ip), vehicle: saline): 154 % of control

O[C@]12CC=CC[C@]1(O)CC(N1CCCCC1)C2
T/C [8]: 99 % of control | T/C [9]: 124 % of control | T/C [10]: 92 % of control
